Experimental data: patent US20230172232A1, “COMPOSITIONS AND METHODS USING AN AMINO ACID BLEND FOR PROVIDING A HEALTH BENEFIT IN AN ANIMAL” (Société des Produits Nestlé S.A., priority 2021, published 2023)

Experiments:
HK2 cells = assay: Luminescent Cell Viability assay by measuring ATP (CellTiter-Glo 2.0); type: cell-based; conditions: for Cell Survival (Average Lum): Table 5, additional study, 48 h in medium, Control 763 951, W/O AA 565 539
Experimental: An amino acid blend study was performed using HK2 cell response to evaluate kidney health benefit. The amino acid blend composed glycine, methionine, cysteine, and glutamine. Protocol for Luminescent Cell Viability assay by measuring ATP, a key indicator of cell health is detailed hereafter.
For each experiment, a frozen stock of HK2 cells banked with less than passage 4 was thawed and expanded in normal growing medium in a humidified incubator at 37° C. in 5% CO2. HK2 cells were cultured for a maximum of 3 passages prior to cellular assays and were passaged upon reaching 70-80% confluence, approximately every 3 days.
2500 HK2 cells were seeded in 384 well plate in normal growing medium. 24 h after, cells were starved during 2 hours in HBSS buffer to remove all amino acids traces and then a new medium with specific formulation is added for 48 h incubation: Control medium with all amino acids, Medium without amino acids, Medium with 4 amino acids blend, Medium with all amino acids except 4 amino acids of interest, Medium with glycine only, Medium with methionine only, Medium with cysteine only, Medium with glutamine only, and Medium with cysteine+glutamine only.
Treatment is stopped by adding a CellTiter-Glo® 2.0 assay reagent from Promega to lyse the cells, after 20 min of incubation at room temperature with under slight shaking luminescence level was measured using a luminescent plate reader as an indicator of cell viability. Presence of ATP indicates the presence of metabolically active cells.

[1] = test system: Complex I (CI) respiration of isolated mitochondria from skeletal muscle; assay: Acute oxidative stress (menadione) and mitochondrial high-resolution respirometry; type: in vivo; conditions: adult zebrafish, 3 μM menadione 2 h, then glycine 50, 200, 450 μM or glucose 500 μM and 5 mM in water 2 h at 28° C.; FIG. 3
Experimental: Adult AB zebrafish of 4-6 months old were exposed in water to acute oxidative stress with 3 μM Menadione (Sigma-Aldrich) incubation for 2 h at 28° C. Following the stress, fish were divided into controls and treatment groups. Controls of the oxidative stress were then incubated in clean water for 2 h at 28° C. […] After BCA quantification of protein concentration, 150 μg of crude extract were used for high-resolution respirometry quantification. The Oxygraph-2k (O2k, OROBOROS Instruments) was used for measurements of respiration. Up to three O2k instruments ([…]) were used in parallel. […] Respiration of isolated mitochondria was determined using substrate-uncoupler-inhibitor titration (SUIT) protocols (Pesta and […], Methods Mol Biol. 2012; 810:25-58) with modifications. Pyruvate, glutammate and malate (5 mM, 10 mM, 2 mM, respectively) were used as substrate to induce Complex I (CI) respiration in presence of ADP (1 mM). […] CI respiration was calculated as the difference between total respiration (CI+CII) and the addition of CI inhibitor rotenone (0.5 μM); CII respiration was calculated as the difference between inhibited CI respiration and the addition of CII inhibitor malonic acid (5 mM). Total respiration (CI+CII, Tot resp) was assessed as the difference of the respiration in presence of all substrates and the total inhibition of CI and CII.

Structure (SMILES)	Cell Survival (Average Lum) (HK2 cells)	protective effect on cell survival (in words) (HK2 cells; Table 5 study)	Complex I dependent respiration (O2 consumption of isolated mitochondria) [1]
N[C@@H](CS)C(=O)O [cysteine]	388 041 Lum	–	–
NC(=O)CC[C@H](N)C(=O)O [glutamine]	740 156 Lum	performed similarly to the blend	–
NCC(=O)O [glycine]	620 224 Lum	–	restores Complex I respiratory levels
CC1=CC(=O)c2ccccc2C1=O [menadione, Menadione, reference compound]	–	–	decreasing Complex I dependent respiration
CSCC[C@H](N)C(=O)O [methionine]	611 869 Lum	–	–
